Source: ChEMBL document CHEMBL1133449 (J Med Chem, 2000)

Assays:
Acetylcholinesterase [1] = target: Acetylcholinesterase (Homo sapiens, UniProt P22303)
Description: Inhibition of acetylcholinesterase isolated from Human erythrocytes.

[2] = target: Cholinesterases; ACHE & BCHE (Homo sapiens) (UniProt P06276+P22303); test: Ratio between IC50 of human BChE and human AChE; assay type: protein assay
Cholinesterase = Cholinesterase (Homo sapiens, UniProt P06276)
Description: Inhibition of butyrylcholinesterase (BChE) in human serum

Acetylcholinesterase [3] = target: T1, Acetylcholinesterase (Bos taurus, UniProt P23795)
T1 sequence (P23795 whole entry): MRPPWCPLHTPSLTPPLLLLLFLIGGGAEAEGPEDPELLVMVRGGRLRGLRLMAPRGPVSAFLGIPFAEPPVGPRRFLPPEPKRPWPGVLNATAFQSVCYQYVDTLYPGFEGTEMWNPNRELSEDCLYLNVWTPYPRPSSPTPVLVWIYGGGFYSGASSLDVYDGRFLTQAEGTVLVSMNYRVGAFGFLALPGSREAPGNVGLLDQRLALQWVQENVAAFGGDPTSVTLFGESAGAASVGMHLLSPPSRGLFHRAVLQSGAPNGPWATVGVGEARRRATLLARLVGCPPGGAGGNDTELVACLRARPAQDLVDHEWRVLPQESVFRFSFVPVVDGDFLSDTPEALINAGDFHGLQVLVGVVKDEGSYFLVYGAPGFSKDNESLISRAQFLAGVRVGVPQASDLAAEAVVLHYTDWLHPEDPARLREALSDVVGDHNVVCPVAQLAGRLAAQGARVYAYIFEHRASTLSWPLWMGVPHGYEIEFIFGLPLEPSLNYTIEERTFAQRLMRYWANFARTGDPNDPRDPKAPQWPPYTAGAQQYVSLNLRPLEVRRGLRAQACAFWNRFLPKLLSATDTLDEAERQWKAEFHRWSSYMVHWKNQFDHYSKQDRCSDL
Description: Compound was evaluated for the inhibition of acetylcholinesterase of bovine erythrocytes

[4] = Compound was evaluated for the antagonism index 10 uM; NR is No Reversion.; assay type: functional
[5] = Compound was evaluated for the antagonism index 10 uM; NR ismNo reversion; assay type: functional
Acetylcholinesterase [6] = target: T1, Acetylcholinesterase; remark: listed apart in the source
Acetylcholinesterase [7] = target: T1, Acetylcholinesterase; remark: listed apart in the source
Description: Compound was evaluated for the inhibition of acetylcholinesterase activity from bovine erythrocytes after 0 minutes of incubation

[8] = Compound was evaluated for the antagonism index at 1 uM; assay type: functional

Chain of Acetylcholinesterase (Homo sapiens, UniProt P22303) (P22303 whole entry): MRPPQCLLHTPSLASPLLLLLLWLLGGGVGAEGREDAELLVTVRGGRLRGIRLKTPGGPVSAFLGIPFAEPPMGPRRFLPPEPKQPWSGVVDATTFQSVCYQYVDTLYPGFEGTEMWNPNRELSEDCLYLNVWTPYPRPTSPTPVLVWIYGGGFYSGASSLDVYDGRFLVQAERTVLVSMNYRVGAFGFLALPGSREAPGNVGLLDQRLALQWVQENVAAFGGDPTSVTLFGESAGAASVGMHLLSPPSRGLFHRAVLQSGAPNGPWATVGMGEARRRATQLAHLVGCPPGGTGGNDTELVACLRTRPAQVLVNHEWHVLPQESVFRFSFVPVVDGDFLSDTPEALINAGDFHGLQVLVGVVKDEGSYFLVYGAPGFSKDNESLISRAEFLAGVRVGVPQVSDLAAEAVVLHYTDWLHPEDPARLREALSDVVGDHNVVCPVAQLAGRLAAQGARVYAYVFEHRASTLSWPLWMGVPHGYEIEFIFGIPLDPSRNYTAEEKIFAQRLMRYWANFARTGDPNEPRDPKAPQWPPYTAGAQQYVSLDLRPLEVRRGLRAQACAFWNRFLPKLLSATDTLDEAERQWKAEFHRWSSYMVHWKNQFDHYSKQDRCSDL
Chain of Cholinesterase (P06276 whole entry): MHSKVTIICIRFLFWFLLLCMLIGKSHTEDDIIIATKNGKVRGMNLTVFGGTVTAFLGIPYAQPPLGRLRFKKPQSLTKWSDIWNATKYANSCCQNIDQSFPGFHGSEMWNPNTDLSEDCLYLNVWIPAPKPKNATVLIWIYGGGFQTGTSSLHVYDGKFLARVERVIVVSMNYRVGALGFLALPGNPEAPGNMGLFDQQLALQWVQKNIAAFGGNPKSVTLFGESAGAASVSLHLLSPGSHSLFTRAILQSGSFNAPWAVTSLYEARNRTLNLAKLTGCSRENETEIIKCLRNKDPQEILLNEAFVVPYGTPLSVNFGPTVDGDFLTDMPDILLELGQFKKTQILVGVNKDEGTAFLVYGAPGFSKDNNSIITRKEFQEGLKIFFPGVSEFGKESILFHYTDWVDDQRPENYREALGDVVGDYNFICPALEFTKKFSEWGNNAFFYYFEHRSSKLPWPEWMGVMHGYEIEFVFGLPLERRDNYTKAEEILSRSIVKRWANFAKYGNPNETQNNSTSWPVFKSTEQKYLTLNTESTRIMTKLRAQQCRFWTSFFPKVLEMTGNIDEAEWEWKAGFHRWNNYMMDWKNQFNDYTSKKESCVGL
Chain of Cholinesterases; ACHE & BCHE (Homo sapiens) (P06276 whole entry, looked up): as the sequence (P06276 whole entry) above
Chain of Cholinesterases; ACHE & BCHE (Homo sapiens) (P22303 whole entry, looked up): as the sequence (P22303 whole entry) above

| Structure (SMILES) | IC50 (Acetylcholinesterase [1]) | IC50 (Cholinesterase) | IC50 (Acetylcholinesterase [3]) | other results |
| --- | --- | --- | --- | --- |
| CC1=CC2Cc3nc4cccc(F)c4c(N)c3C(C1)C2 (stereo not drawn) | 35.4 nM | – | – | Ratio [2]: 15.3 |
| CCC1=CC2Cc3nc4cccc(Cl)c4c(N)c3C(C1)C2 (stereo not drawn) | 11.7 nM | 331 nM | – | – |
| CCC1=CC2Cc3nc4cc(C)cc(C)c4c(N)c3C(C1)C2 (stereo not drawn) | 4.96 nM | 32.6 nM | 3.59 nM | Ratio [2]: 6.57 |
| CC1=CC2Cc3nc4cc(F)cc(F)c4c(N)c3C(C1)C2 (stereo not drawn) | 2.2 nM | 963 nM | – | Ratio [2]: 438 |
| CCC1=CC2Cc3nc4cc(F)cc(F)c4c(N)c3C(C1)C2 (stereo not drawn) | 1.76 nM | 194 nM | 2.62 nM | – |
| CCC1=CC2Cc3nc4cc(Cl)cc(Cl)c4c(N)c3C(C1)C2 (stereo not drawn) | 1.39 nM | 1210 nM | 39.6 nM | – |
| CC1=C[C@@H]2Cc3nc4cc(F)ccc4c(N)c3[C@H](C1)C2 | 4.58 nM | – | – | Ratio [2]: 43 |
| CCC1=CC2Cc3nc4cc(C)ccc4c(N)c3C(C1)C2 (stereo not drawn) | – | – | – | NR [4]: No reversion |
| CCC1=CC2Cc3nc4cc(Cl)ccc4c(N)c3[C@@H](C1)C2 (mixture of isomers; (+)) | – | – | – | NR [5]: No reversion |
| CCC1=CC2Cc3nc4cc(Cl)ccc4c(N)c3[C@@H](C1)C2 (mixture of isomers; (+)) [HUPRINE X] | 23.1 nM | 58.3 nM | 402 nM | IC50 (Acetylcholinesterase [6]): 350 nM; IC50 (Acetylcholinesterase [7]): 240 nM |
| CCC1=CC2Cc3nc4cc(Cl)ccc4c(N)c3[C@@H](C1)C2 (mixture of isomers; (-)) [HUPRINE X] | 0.32 nM | 159 nM | 1.3 nM | IC50 (Acetylcholinesterase [6]): 0.0674 nM; IC50 (Acetylcholinesterase [7]): 2.31 nM |
| CC1=CC2Cc3nc4cc(Cl)ccc4c(N)c3C(C1)C2 (racemic; (+)) | – | – | – | inhibition [8]: 22.1% |
| CC1=CC2Cc3nc4cc(Cl)ccc4c(N)c3C(C1)C2 (racemic; (+)) [HUPRINE Y] | – | 153 nM | 65 nM | – |
| CC1=CC2Cc3nc4cc(Cl)ccc4c(N)c3C(C1)C2 (racemic; (-)) [HUPRINE Y] | – | 247 nM | 1.15 nM | IC50 (Acetylcholinesterase [6]): 0.0245 nM; IC50 (Acetylcholinesterase [7]): 3.03 nM |
| CCC1=CC2Cc3nc4cc(Cl)ccc4c(N)c3[C@@H](C1)C2 (stereo in doubt) [HUPRINE X] | 0.75 nM | 15.8 nM | 2.77 nM | IC50 (Acetylcholinesterase [6]): 0.23 nM; IC50 (Acetylcholinesterase [7]): 3.34 nM |
| CC1=CC2Cc3nc4cc(Cl)ccc4c(N)c3C(C1)C2 (stereo in doubt) [HUPRINE Y] | – | 236 nM | 4.23 nM | IC50 (Acetylcholinesterase [6]): 0.64 nM; IC50 (Acetylcholinesterase [7]): 3.1 nM |
| C/C=C1\[C@H]2C=C(C)C[C@]1(N)c1ccc(=O)[nH]c1C2 [HUPERZINE A] | – | > 10000 nM | – | – |
